Data set [1] can be described thus: Metabolic stability in human liver microsomes assessed as compound remaining after 30 mins. The following applies: read-out: Stability. The class given is ADME, Microsome. (In general: Microsomes from liver hold many membrane-bound enzymes, among them those of drug oxidation.)
Data set [2] is described as follows: Metabolic stability in mouse liver microsomes assessed as compound remaining. The class given is ADME, Microsome.

Turning to `CCC[C@@H](CCO)Nc1nc(N)nc2c3ccccc3n(Cc3cc(CNC[C@@H]4CCOC4)ccc3OC)c12`, the remaining at 0.5 h in data set [1] was 4%. Besides, the Stability in data set [2] is 1%.
